The values that follow come from patent publication US20230278981A1, “DICHLOROPHENOL HSD17B13 INHIBITORS AND USES THEREOF” (INIPHARM, INC., priority 2020, published 2023).

Broadly, the IC50 is the concentration needed to halve the response being measured.

This experiment has as its target HSD17B13 (Homo sapiens (Human), UniProt Q7Z5P4). Nature of the experiment: LC/MS estrone detection assay: conversion of estradiol to estrone by HSD17B13. In kind it is biochemical. To be noted: 4 μM estradiol, 6 mM NAD+, 30 nM HSD17B13 enzyme (E. coli expressed His-tagged), 2 hours at 26.5° C. As to the method: The liquid chromatography/mass spectrometry (LC/MS) estrone detection assay monitors the conversion of estradiol to estrone by HSD17B13. This assay was undertaken in a 96wp format (Eppendorf deep well Plate 96/500) in an 80 μl reaction volume containing: 4 μM of Estradiol (E2; Cayman; Ser. No. 10/006,315), 6 mM NAD+(Sigma; #N0623) and 30 nM HSD17B13 enzyme (in-house; E. coli expressed His-tagged, purified, soluble protein) in a reaction containing […] potassium phosphate buffer pH 7.4, with 0.5% vehicle (DMSO). Reactions were incubated for 2 hours at 26.5° C., and estradiol (E2) conversion to estrone (E1) was quantitated by LC-MS/MS based analyte detection for both E2 and E1 using LCMS grade reagents.
Reactions were terminated by the addition of two volumes of acetonitrile (MeCN; LCMS grade; CAS #75/05/8) containing deuterated (D4)-E1 used as internal standard (Clear Synth; #CS-T-54273; 500 ng/mL final concentration). Samples were applied to pre-prepared Bond Elut-C18 extraction cartridges (3 mL; Agilent; Ser. No. 12/102,028), washed and eluted in MeCN. Eluates were dried under nitrogen and re-suspended in 60% methanol (LCMS grade methanol; CAS #67/56/1) before submission for analysis. Aqueous linearity for E2 and E1 were included for quantification.
Analysis of samples was undertaken on a XBridge BEH C18 column (Waters; #186003033) using 0.1% Diethyl Amine in MeCN (mobile phase A; DEA CAS #109-89-7) and 0.1% Diethyl Amine in milli-Q water (mobile phase B) in a 3 min gradient allowing 25% B. Analytes were detected in negative mode using MRM analysis, with E2 having a RT of 1.85 min and E1 having a RT of 2 min. Activity of the enzyme, in the absence of NAD^+, was used to evaluate specificity of conversion. Enzyme activity in the presence of test samples was expressed as a percentage of the uninhibited enzyme activity, and plotted versus inhibitor concentration. Non-linear regression was performed using a four-parameter logistic model and GraphPad Prism software (GraphPad Software, La Jolla, Calif.). All assessments were undertaken in duplicate evaluations and pooled during extraction process and subsequently injected as duplicates for LC-MS/MS analysis.

Each structure is given as a SMILES string.

HSD17B13, sequence (Q7Z5P4 20-300): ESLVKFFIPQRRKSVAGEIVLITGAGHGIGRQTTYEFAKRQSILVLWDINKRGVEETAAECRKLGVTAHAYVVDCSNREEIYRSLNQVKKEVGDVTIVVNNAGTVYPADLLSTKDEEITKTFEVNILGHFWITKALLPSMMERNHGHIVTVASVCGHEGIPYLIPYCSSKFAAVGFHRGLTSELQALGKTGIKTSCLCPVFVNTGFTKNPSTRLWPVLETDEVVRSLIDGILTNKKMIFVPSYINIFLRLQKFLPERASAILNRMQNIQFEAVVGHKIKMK

In turn, `O=C(Nc1scnc1C(=O)NCc1cccc(F)c1)c1cc(Cl)c(O)c(Cl)c1` [Example 34, 5-(3,5-dichloro-4-hydroxybenzamido)-N-(3-fluorobenzyl)thiazole-4-carboxamide] gave a half-maximal inhibitory concentration (IC50) not above 100 nM.

On to `Cc1ccc(NC(=O)c2cc(Cl)c(O)c(Cl)c2)c2c(=O)n([C@@H]3CC[C@H]3c3ccccc3)c(C)nc12` [Example 203, 3,5-dichloro-N-(2,8-dimethyl-4-oxo-3-((1R,2S)-2-phenylcyclobutyl)-3,4-dihydroquinazolin-5-yl)-4-hydroxybenzamide], for which the IC50 was not above 100 nM. As for `Cc1ccc(NC(=O)c2cc(Cl)c(O)c(Cl)n2)c2c(=O)n(Cc3ccccc3C(F)(F)F)c(C)nc12` [Example 163, 4,6-dichloro-N-(2,8-dimethyl-4-oxo-3-(2-(trifluoromethyl)benzyl)-3,4-dihydroquinazolin-5-yl)-5-hydroxypicolinamide], the figure is 100 to 500 nM; as for `O=C(Nc1cc(Cl)sc1C(=O)NCc1ccccc1OC(F)(F)F)c1cc(Cl)c(O)c(Cl)c1` [Example 37, 5-chloro-3-(3,5-dichloro-4-hydroxybenzamido)-N-(2-(trifluoromethoxy)benzyl) thiophene-2-carboxamide], not above 100 nM.

For the compound `O=C(Nc1ccc(Cl)c2ncn(Cc3ccccc3OC(F)(F)F)c(=O)c12)c1cc(Cl)c(O)c(Cl)c1` [Example 81, 3,5-dichloro-N-(8-chloro-4-oxo-3-(2-(trifluoromethoxy)benzyl)-3,4-dihydroquinazolin-5-yl)-4-hydroxybenzamide], the IC50 was not above 100 nM. As for `[2H]C([2H])([2H])c1nc2c(C)ccc(NC(=O)c3cc(Cl)c(O)c(Cl)n3)c2c(=O)n1Cc1ccccc1OC(F)(F)F` [Example 176, 4,6-dichloro-5-hydroxy-N-(8-methyl-2-(methyl-d3)-4-oxo-3-(2-(trifluoromethoxy)benzyl)-3,4-dihydroquinazolin-5-yl)picolinamide], the figure is not above 100 nM. The result for `Cn1c(=O)n(Cc2ccccc2OC(F)(F)F)c(=O)c2c(NC(=O)c3cc(Cl)c(O)c(Cl)n3)cccc21` [Example 113, 4,6-dichloro-5-hydroxy-N-(1-methyl-2,4-dioxo-3-(2-(trifluoromethoxy)benzyl)-1,2,3,4-tetrahydroquinazolin-5-yl)picolinamide] reads 100 to 500 nM; that for `O=C(Nc1cccc2ncn(Cc3ccccc3F)c(=O)c12)c1cc(Cl)c(O)c(Cl)c1` [Example 9, 3,5-dichloro-N-(3-(2-fluorobenzyl)-4-oxo-3,4-dihydroquinazolin-5-yl)-4-hydroxybenzamide], 100 to 500 nM; that for `Cc1nc2c(F)ccc(NC(=O)c3cc(Cl)c(O)c(Cl)n3)c2c(=O)n1Cc1ccccc1OC(F)(F)F` [Example 150, 4,6-dichloro-N-(8-fluoro-2-methyl-4-oxo-3-(2-(trifluoromethoxy)benzyl)-3,4-dihydroquinazolin-5-yl)-5-hydroxypicolinamide], not above 100 nM. For the compound `Cc1ccc(NC(=O)c2cc(Cl)c(O)c(Cl)c2)c2c(=O)n(Cc3ncccc3F)c(C)nc12` [Example 183, 3,5-dichloro-N-(3-((3-fluoropyridin-2-yl)methyl)-2,8-dimethyl-4-oxo-3,4-dihydroquinazolin-5-yl)-4-hydroxybenzamide], the IC50 fell in the range of 100 to 500 nM. As for `O=C(Nc1cccc2nc(C(F)(F)F)n(C3CC3c3ccccc3)c(=O)c12)c1cc(Cl)c(O)c(Cl)n1` (stereo not drawn) [Example 101, 4,6-dichloro-5-hydroxy-N-(4-oxo-3-(2-phenylcyclopropyl)-2-(trifluoromethyl)-3,4-dihydroquinazolin-5-yl)picolinamide], the figure is 1000 to 10000 nM; as for `COc1ccccc1CCn1cnc2cccc(NC(=O)c3cc(Cl)c(O)c(Cl)c3)c2c1=O` [Example 36, 3,5-dichloro-4-hydroxy-N-(3-(2-methoxyphenethyl)-4-oxo-3,4-dihydroquinazolin-5-yl)benzamide], 100 to 500 nM. The result for `NS(=O)(=O)c1ccccc1Cn1cnc2cccc(NC(=O)c3cc(Cl)c(O)c(Cl)c3)c2c1=O` [Example 106, 3,5-dichloro-4-hydroxy-N-(4-oxo-3-(2-sulfamoylbenzyl)-3,4-dihydroquinazolin-5-yl)benzamide] reads more than 10000 nM; that for `O=C(Nc1scnc1C(=O)NCc1ccccc1F)c1cc(Cl)c(O)c(Cl)c1` [Example 33, 5-(3,5-dichloro-4-hydroxybenzamido)-N-(2-fluorobenzyl)thiazole-4-carboxamide], 100 to 500 nM; that for `O=C(Nc1ncsc1C(=O)NCc1ccc(F)cc1F)c1cc(Cl)c(O)c(Cl)c1` [Example 28, 4-(3,5-dichloro-4-hydroxybenzamido)-N-(2,4-difluorobenzyl)thiazole-5-carboxamide], 1000 to 10000 nM. Consider `O=C(Nc1cccc2ncn(Cc3cc[nH]c(=O)c3)c(=O)c12)c1cc(Cl)c(O)c(Cl)c1` [Example 4, 3,5-dichloro-4-hydroxy-N-(3-((2-hydroxypyridin-4-yl)methyl)-4-oxo-3,4-dihydroquinazolin-5-yl)benzamide], for which the IC50 is 1000 to 10000 nM. With `O=C(Nc1cccc2ncn(C(CN3CCOCC3)c3ccccc3)c(=O)c12)c1cc(Cl)c(O)c(Cl)c1` (stereo not drawn) [Example 123, 3,5-dichloro-4-hydroxy-N-(3-(2-morpholino-1-phenylethyl)-4-oxo-3,4-dihydroquinazolin-5-yl)benzamide], the IC50 lay in the range of 100 to 500 nM.

Turning to `Cn1nc(NC(=O)c2cc(Cl)c(O)c(Cl)c2)c2c(=O)n(Cc3ccccc3OC(F)(F)F)cnc21` [Example 118, 3,5-dichloro-4-hydroxy-N-(1-methyl-4-oxo-5-(2-(trifluoromethoxy)benzyl)-4,5-dihydro-1H-pyrazolo[3,4-d]pyrimidin-3-yl)benzamide], the IC50 fell in the range of 500 to 1000 nM.

Turning to `CN1CCN(c2ccc(Cn3cnc4cccc(NC(=O)c5cc(Cl)c(O)c(Cl)c5)c4c3=O)cc2)CC1` [Example 45, 3,5-dichloro-4-hydroxy-N-(3-(4-(4-methylpiperazin-1-yl)benzyl)-4-oxo-3,4-dihydroquinazolin-5-yl)benzamide], the IC50 lay within 1000 to 10000 nM.

For `O=C(Nc1cccc2ncn(Cc3ncccc3C(F)(F)F)c(=O)c12)c1cc(Cl)c(O)c(Cl)c1` [Example 75, 3,5-dichloro-4-hydroxy-N-(4-oxo-3-((3-(trifluoromethyl)pyridin-2-yl)methyl)-3,4-dihydroquinazolin-5-yl)benzamide], the IC50 is not above 100 nM.

In turn, `Cc1ccc(NC(=O)c2cc(Cl)c(O)c(Cl)c2)c2c(=O)n(Cc3ncccc3C(F)(F)F)c(C)nc12` [Example 146, 3,5-dichloro-N-(2,8-dimethyl-4-oxo-3-((3-(trifluoromethyl)pyridin-2-yl)methyl)-3,4-dihydroquinazolin-5-yl)-4-hydroxybenzamide] showed an IC50 not above 100 nM. The result for `O=C(Nc1cccc2ncn([C@@H]3C[C@H]3c3ccccc3)c(=O)c12)c1cc(Cl)c(O)c(Cl)c1` (racemic) [Example 102, Rac-3,5-dichloro-4-hydroxy-N-(4-oxo-3-((1R,2S)-2-phenylcyclopropyl)-3,4-dihydroquinazolin-5-yl)benzamide] reads 1000 to 10000 nM; that for `CC(c1ccccc1OC(F)(F)F)n1cnc2cccc(NC(=O)c3cc(Cl)c(O)c(Cl)c3)c2c1=O` (stereo not drawn) [Example 74, 3,5-dichloro-4-hydroxy-N-(4-oxo-3-(1-(2-(trifluoromethoxy)phenyl)ethyl)-3,4-dihydroquinazolin-5-yl)benzamide], 100 to 500 nM; that for `Cc1nsc(NC(=O)c2cc(Cl)c(O)c(Cl)n2)c1C(=O)NCc1ccccc1F` [Example 114, 5-(4,6-dichloro-5-hydroxypicolinamido)-N-(2-fluorobenzyl)-3-methylisothiazole-4-carboxamide], 100 to 500 nM. In turn, `Cc1ccc(NC(=O)c2cc(Cl)c(O)c(Cl)n2)c2c(=O)n(Cc3ccccc3OC(F)(F)F)c(C)nc12` [Example 141, 4,6-dichloro-N-(2,8-dimethyl-4-oxo-3-(2-(trifluoromethoxy)benzyl)-3,4-dihydroquinazolin-5-yl)-5-hydroxypicolinamide] came in with an IC50 not above 100 nM.

For the compound `O=C(Nc1cccnc1C(=O)NCc1ccccc1OC(F)(F)F)c1cc(Cl)c(O)c(Cl)c1` [Example 69, 3-(3,5-dichloro-4-hydroxybenzamido)-N-(2-(trifluoromethoxy)benzyl) picolinamide], the half-maximal inhibitory concentration (IC50) lay in the range of 100 to 500 nM. The result for `Cc1nc2c(F)ccc(NC(=O)c3cc(Cl)c(O)c(Cl)c3)c2c(=O)n1Cc1cccc(C(F)(F)F)n1` [Example 197, 3,5-dichloro-N-(8-fluoro-2-methyl-4-oxo-3-((6-(trifluoromethyl)pyridin-2-yl)methyl)-3,4-dihydroquinazolin-5-yl)-4-hydroxybenzamide] reads 500 to 1000 nM.
